Where a name gives a salt, the structure may show the parent alone.
Columns and labels:
bovine thrombin [1] = target: T1, bovine thrombin (Bos taurus, UniProt P00735); assay: Antithrombin activity: inhibition of fibrin formation from fibrinogen (coagulation time); format: biochemical; conditions: Table III, known compounds of Table II; coagulation time extended twice; *1: 0% Inhibition at the given concentration; read-out: I50 Thrombin Fibrinogen
Procedure: (§1) (2) Evaluation of Antithrombin Activity
(i) Determination of inhibition activity against fibrin formation
An inhibitor sample is dissolved in a 0.18 M borate-physiological salt buffer solution (pH = 7.4) to make the total volume to 500 µl. To this solution, 400 µl of a 0.2% bovine fibrinogen solution and 100 µl of a 4 unit/ ml bovine thrombin solution are added at a temperature of 37°C in a constant temperature bath. Thus, a coagulation time is determined. The inhibitor concentraion I50, at which the coagulation time obtained in the absence of the inhibitor is extended twice, is determined.

bovine trypsin = target: T2, bovine trypsin (Bos taurus, UniProt P00760); assay: Antitrypsin activity: inhibition of S-2238 decomposition; format: biochemical; conditions: Table III, known compounds of Table II; substrate S-2238; *1: 0% Inhibition at the given concentration; read-out: I50 Trypsin S-2238
T2 sequence (P00760 24-246): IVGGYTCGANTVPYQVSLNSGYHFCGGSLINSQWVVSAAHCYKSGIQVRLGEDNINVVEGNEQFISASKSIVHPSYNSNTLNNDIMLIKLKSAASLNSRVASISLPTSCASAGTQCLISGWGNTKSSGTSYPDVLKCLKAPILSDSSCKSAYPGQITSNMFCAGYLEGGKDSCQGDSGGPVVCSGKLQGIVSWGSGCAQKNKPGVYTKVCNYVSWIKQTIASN
Procedure: (3) Evaluation of Antitrypsin Activity
Determination of inhibition activity against S-2238 decomposition
An inhibitor sample is dissolved in a 0.05 M Tris-imidazole buffer solution (pH = 8.1) and 125 µl of a 1 mM S―2238 solution is added to make the total volume to 1.20 ml. The mixture is incubated at a temperature of 37°C for 5 minutes in a constant temperature bath. To this mixture, 0.05 ml of bovine trypsin is added and the absorbance, at 405 nm, of the p-nitroaniline formed per minute is determined at a temperature of 37°C by using the so-called initial velocity method. Thus, the concentration 15° of the inhibitor sample, at which the absorbance is one half (i.e., 1/2) of that obtained in the absence of the inhibitor, is determined.

Plasmin [2] = target: T3, Plasmin (Homo sapiens, UniProt P00747); assay: biochemical; conditions: substrate S-2251
T3 sequence (P00747 581-810 limits assumed): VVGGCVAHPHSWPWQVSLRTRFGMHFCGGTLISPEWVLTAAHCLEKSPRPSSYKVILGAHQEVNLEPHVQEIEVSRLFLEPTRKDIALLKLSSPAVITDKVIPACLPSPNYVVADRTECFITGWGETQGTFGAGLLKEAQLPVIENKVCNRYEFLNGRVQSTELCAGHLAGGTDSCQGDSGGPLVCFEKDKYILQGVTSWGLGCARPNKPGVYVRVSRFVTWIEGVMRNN
T3 sequence (P00747 97-580 partner limits assumed): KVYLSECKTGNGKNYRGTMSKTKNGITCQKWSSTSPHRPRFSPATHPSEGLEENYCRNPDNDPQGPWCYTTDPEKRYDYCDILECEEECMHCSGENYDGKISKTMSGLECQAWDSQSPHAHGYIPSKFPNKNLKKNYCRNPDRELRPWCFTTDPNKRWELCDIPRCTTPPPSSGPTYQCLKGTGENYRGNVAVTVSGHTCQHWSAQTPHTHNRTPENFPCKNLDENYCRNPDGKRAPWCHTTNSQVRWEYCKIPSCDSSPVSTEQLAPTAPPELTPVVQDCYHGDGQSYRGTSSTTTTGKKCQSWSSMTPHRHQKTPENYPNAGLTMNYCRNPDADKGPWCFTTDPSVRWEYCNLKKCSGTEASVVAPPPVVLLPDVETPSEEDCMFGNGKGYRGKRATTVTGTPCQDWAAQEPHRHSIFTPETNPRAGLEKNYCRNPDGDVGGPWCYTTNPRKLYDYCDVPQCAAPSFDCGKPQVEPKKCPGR
Procedure: (§2) (1) Evaluation of Antiplasmin Activity
(ii) Determination of prevention activity for S-2251 decomposition
An inhibitor sample is dissolved in a 0.05 M Tris-hydrochloric acid buffer solution (pH = 7.4) to make the total volume to 400 µl. To this solution, 50 pl of a 3 mM S-2251 solution is added and the mixture is incubated at a temperature of 37°C for 5 minutes in a constant temperature bath. Then, 50 pl of a 0.2 casein unit/ml human plasmin is added and the mixture is incubated at a temperature of 37°C for 4 minutes. Thereafter, the reaction is stopped by adding 50 µl of 50% acetic acid.
The absorbance of p-nitroaniline formed in the reaction mixture is determined at 405 nm. Thus, the concentration I50 of the inhibitor sample, at which the absorbance is one half (i.e., 1/2) of that obtained in the absence of the inhibitor, is determined.

bovine thrombin [3] = target: T1, bovine thrombin; assay: Antithrombin activity: prevention of S-2238 decomposition; format: biochemical; conditions: Table III, known compounds of Table II; substrate S-2238; *1: 0% Inhibition at the given concentration; read-out: I50 Thrombin S-2238
Procedure: as §1
(ii) Determination of prevention activity for S-2238 decomposition
An inhibitor sample is dissolved in a 0.05 M Tris-hydrochloric acid buffer solution (pH = 8.3) to make a total volume to 400 µl. To this solution, 50 µl of a […] S-2238 solution is added and the mixture is incubated at a temperature of 37°C for 5 minutes in a constant temperature bath. Then, 50 µl of a 0.2 unit/ml bovine thrombin solution is added thereto and the absorbance, at 405 nm, of the p-nitroaniline formed per minute is determined at a temperature of 37°C by using the so-called initial velocity method. Thus, the concentration 150 of the inhibitor sample at which the absorbance is one half (i.e., 1/2) of that obtained in the absence of the inhibitor, is determined.

human plasma kallikrein = human plasma kallikrein (Homo sapiens, UniProt P03952); assay: Anti-plasma kallikrein activity: prevention of S-2302 decomposition; format: biochemical; conditions: Table III, known compounds of Table II; substrate S-2302; *1: 0% Inhibition at the given concentration; read-out: I50 Plasma Kallikrein S-2302
human plasma kallikrein, sequence (P03952 391-638 limits assumed): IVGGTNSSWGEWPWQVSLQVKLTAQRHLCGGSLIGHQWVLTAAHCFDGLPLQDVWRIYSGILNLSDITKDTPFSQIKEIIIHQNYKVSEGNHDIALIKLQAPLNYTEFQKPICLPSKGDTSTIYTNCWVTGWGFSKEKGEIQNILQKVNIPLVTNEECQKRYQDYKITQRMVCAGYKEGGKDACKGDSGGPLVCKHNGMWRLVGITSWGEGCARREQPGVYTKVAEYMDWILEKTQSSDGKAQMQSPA
human plasma kallikrein, sequence (P03952 20-390 partner limits assumed): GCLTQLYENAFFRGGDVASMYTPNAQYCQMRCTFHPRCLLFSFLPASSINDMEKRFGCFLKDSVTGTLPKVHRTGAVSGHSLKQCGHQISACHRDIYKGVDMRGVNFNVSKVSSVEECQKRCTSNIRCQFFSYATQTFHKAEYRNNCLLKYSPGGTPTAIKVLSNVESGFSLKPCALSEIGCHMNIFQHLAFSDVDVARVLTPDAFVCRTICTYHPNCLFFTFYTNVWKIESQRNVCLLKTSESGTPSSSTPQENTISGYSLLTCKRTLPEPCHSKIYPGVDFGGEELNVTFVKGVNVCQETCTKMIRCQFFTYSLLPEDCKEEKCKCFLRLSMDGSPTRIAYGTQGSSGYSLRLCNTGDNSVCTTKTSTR
Procedure: (4) Evaluation of Anti-Plasma Kallikrein Activity
Determination of prevention activity for S―2302 decomposition
An inhibitor sample is dissolved in a 0.05 M Tris-hydrochloric acid buffer solution (pH = 7.8) to make the total volume to 400 pl. To this solution, 50 pl of a 2 mM S-2302 solution is added and the mixture is incubated at a temperature of 37°C for 5 minutes in a constant temperature bath. Then, 50 µl of a 0.12 unit/ ml human plasma kallikrein is added and the mixture is incubated at a temperature of 37°C for 5 minutes. Thereafter, 50 pl of 50% acetic acid is added to terminate the reaction. The absorbance of the p-nitroaniline formed in the reaction mixture is measured at 405 nm. Thus, the concentration 150 of the inhibitor sample, at which the absorbance is one half (i.e., 1/2) of that obtained in the absence of the inhibitor sample, is determined.

Plasmin [4] = target: T3, Plasmin; assay: biochemical
Procedure: as §2
(i) Determination of prevention activity for fibrin decomposition
0.18 M borate-physiological salt buffer solution (pH = 7.4) to make the total volme to 600 pl. To this buffer solution, 200 µl of a 0.2% bovin fibrinogen, 100 µl of a 0.3 cassein unit/ml human […] solution, and 100 µl of a 50 unit/ml bovine thrombin solution, all dissolved in the above-mentioned buffer, are added at a temperature of 37°C in a constant temperature bath. Then, the dissolution time of the fibrin mass formed above is determined.

human urokinase = human urokinase (Homo sapiens, UniProt P00749); assay: Antiurokinase activity: prevention of S-2444 decomposition; format: biochemical; conditions: Table III, known compounds of Table II; substrate S-2444; *1: 0% Inhibition at the given concentration; read-out: I50 Urokinase S-2444
Procedure: (5) Evaluation of Antiurokinase Activity
Determination of prevention activity for S-2444 decomposition
An inhibitor sample is dissolved in a 0.05 M Tris-hydrochloric acid buffer solution (pH = 8.8) to make the total volume to 400 pl. To this solution, 50 pl of a 1 mM S―2444 solution is added and the mixture is incubated at a temperature of 37°C for 5 minutes in a constant temperature bath. Then, 50 µl of a 500 unit/ ml human urokinase is added and the mixture is incubated at a temperature of 37°C for 5 minutes. Thereafter, 50 pl of 50% acetic acid is added to terminate the reaction. The absorbance of the p-nitroaniline formed in the reaction mixture is measured at 405 nm. Thus, the concentration 150 of the inhibitor sample, at which the absorbance is one half (i.e., 1/2) of that obtained in the absence of the inhibitor, is determined.

Plasmin [5] = target: T3, Plasmin; assay: Antiplasmin activity: prevention of fibrinogen decomposition; format: biochemical; conditions: Table IV, present compounds, read-out: I50 Fibrinogen
Procedure: as §2
(iii) Determination of prevention activity for fibrinogen
An inhibitor sample is dissolved in a 0.18 M borate-physiological salt buffer solution (pH = 7.4) to make the total volume to 400 µl. To this solution, 500 pl of a 0.4% bovine fibrinogen solution and 100 pl of a 1 casein unit/ml human plasmin solution, all dissolved in the above-mentioned buffer are added at a temperature of 37°C in a constant temperature bath. After the mixture is allowed to stand at a temprature of 37°C for 10 minutes, 3800 µl of the above-mentioned buffer containing (3.2 mM of tranexamic acid and 200 µl of a 50 unit/ml bovine thrombin solution are added to terminate the reaction. The mixture is incubated at a temperature of 37°C for 15 minutes to precipitate the fibrin. The fibrin mass thus precipitated is adhered to or wound around a glass rod and is then washed with water. The amount of the remaining fibrinogen is determined according to a tyrosine coloring method using a phenol reagent (see J. Biol. Chem., 73, 627 (1927). From the amount of the remaining fibrinogen thus determined, the amount of decomposed fibrinogen is calculated. Thus, the concentration 150 of the inhibitor sample, at which the amount of decomposed fibrinogen is one half (i.e., 1/2) of that obtained in the absence of the inhibitor sample, is determined.

[6] = Table III, known compounds of Table II, *1: 0% Inhibition at the given concentration, read-out: I50 Plasmin S-2251
[7] = Table IV, present compounds, plasmin, read-out: I50 S-2251
[8] = Table III, known compounds of Table II, fibrin dissolution time extended twice, *1: 0% Inhibition, *2: 19% Inhibition at the concentration, read-out: I50 Plasmin Fibrin
[9] = Table IV, present compounds, plasmin, fibrin decomposition, read-out: I50 Fibrin

| Compound | IC50 (bovine thrombin [1]) [µM] | IC50 (bovine trypsin) [µM] | IC50 (Plasmin [2]; [6]) [µM] | IC50 (Plasmin [2]; [7]) [µM] | IC50 (bovine thrombin [3]) [µM] | IC50 (human plasma kallikrein) [µM] | IC50 (Plasmin [4]; [8]) [µM] | IC50 (Plasmin [4]; [9]) [µM] | IC50 (human urokinase) [µM] | IC50 (Plasmin [5]) [µM] |
| --- | --- | --- | --- | --- | --- | --- | --- | --- | --- | --- |
| NCCCCCC(=O)N[C@@H](CCCCN)C(=O)O [Compound No. 7] | > 1000 | > 200 | > 1000 | 350 | > 1000 | > 1000 | > 1000 | 300 | > 1000 | – |
| CN(C)c1cccc2c(S(=O)(=O)N[C@@H](CCCCN)C(=O)N3CCC(Cc4ccccc4)CC3)cccc12 [compound 48] | – | – | – | 130 | – | – | – | – | – | – |
| Cc1ccc(S(=O)(=O)N[C@@H](CCCCN)C(=O)Nc2ccc([N+](=O)[O-])cc2)cc1 [Compound No. 3, N^2-(p-toluenesulfonyl)-L-lysine p-nitroanilide hydrochloride] | – | – | 50000 | 700 | – | – | – | 780 | – | 900 |
| Cc1ccc(S(=O)(=O)N[C@@H](CCCCN)C(=O)N2CCC(Cc3ccccc3)CC2)cc1 [compound 21] | – | – | – | 300 | – | – | – | 150 | – | – |
| Cc1ccc(S(=O)(=O)N[C@@H](CCCCN)C(=O)Nc2cccc(C#N)c2)cc1 [compound 29] | – | – | – | 480 | – | – | – | 340 | – | – |
| CCOC(=O)c1ccc(NC(=O)[C@H](CCCCN)NS(=O)(=O)c2ccc(C)cc2)cc1 [compound 33] | – | – | – | 650 | – | – | – | 540 | – | – |
| Cc1ccc(S(=O)(=O)N[C@@H](CCCCN)C(=O)Nc2ccc(C(F)(F)F)cc2)cc1 [compound 32] | – | – | – | 600 | – | – | – | 430 | – | – |
| Cc1ccc(S(=O)(=O)N[C@@H](CCCCN)C(=O)Nc2cccc(Cl)c2)cc1 [compound 18] | – | – | – | 600 | – | – | – | 350 | – | – |
| CC1CCCN(C(=O)[C@H](CCCCN)NS(=O)(=O)c2cccc3c(N(C)C)cccc23)C1 (some centres unmarked) [compound 37] | – | – | – | 2000 | – | – | – | 730 | – | – |
| NCCCC[C@H](NC(=O)c1ccccc1)C(N)=O [Compound No. 8] | > 1000 | > 300 | > 1000 | 250 | > 1000 | > 1000 | > 1000 | 140 | > 1000 | – |
